From US10150728B2, “Alkylene derivatives” (Shionogi & Co., Ltd., priority 2013, dated 2018)

Molecular target: recombinant human ACC2 (Homo sapiens (Human), UniProt O00763)
Experiment: Measurement of inhibitory activity on human ACC2 (MALDI-TOF MS, acetyl CoA to malonyl CoA conversion)
Assay type: biochemical
Settings: Tables 155-159
In short: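 His-tagged human ACC2 (residues 27–2458) from baculovirus-infected Sf-9 cells was preincubated 1 h in pH 7.4 HEPES-KOH buffer with MgCl2, 6-10 mM potassium citrate, glutathione and BSA. Substrate solution held 1 mM ATP, 0.8 mM acetyl CoA and 25-50 mM bicarbonate. After 1–3 h at room temperature, malonyl CoA/(malonyl+acetyl CoA) was read by negative-mode MALDI-TOF MS; citrate, bicarbonate and time varied by enzyme lot.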

recombinant human ACC2, sequence (O00763 27-2458): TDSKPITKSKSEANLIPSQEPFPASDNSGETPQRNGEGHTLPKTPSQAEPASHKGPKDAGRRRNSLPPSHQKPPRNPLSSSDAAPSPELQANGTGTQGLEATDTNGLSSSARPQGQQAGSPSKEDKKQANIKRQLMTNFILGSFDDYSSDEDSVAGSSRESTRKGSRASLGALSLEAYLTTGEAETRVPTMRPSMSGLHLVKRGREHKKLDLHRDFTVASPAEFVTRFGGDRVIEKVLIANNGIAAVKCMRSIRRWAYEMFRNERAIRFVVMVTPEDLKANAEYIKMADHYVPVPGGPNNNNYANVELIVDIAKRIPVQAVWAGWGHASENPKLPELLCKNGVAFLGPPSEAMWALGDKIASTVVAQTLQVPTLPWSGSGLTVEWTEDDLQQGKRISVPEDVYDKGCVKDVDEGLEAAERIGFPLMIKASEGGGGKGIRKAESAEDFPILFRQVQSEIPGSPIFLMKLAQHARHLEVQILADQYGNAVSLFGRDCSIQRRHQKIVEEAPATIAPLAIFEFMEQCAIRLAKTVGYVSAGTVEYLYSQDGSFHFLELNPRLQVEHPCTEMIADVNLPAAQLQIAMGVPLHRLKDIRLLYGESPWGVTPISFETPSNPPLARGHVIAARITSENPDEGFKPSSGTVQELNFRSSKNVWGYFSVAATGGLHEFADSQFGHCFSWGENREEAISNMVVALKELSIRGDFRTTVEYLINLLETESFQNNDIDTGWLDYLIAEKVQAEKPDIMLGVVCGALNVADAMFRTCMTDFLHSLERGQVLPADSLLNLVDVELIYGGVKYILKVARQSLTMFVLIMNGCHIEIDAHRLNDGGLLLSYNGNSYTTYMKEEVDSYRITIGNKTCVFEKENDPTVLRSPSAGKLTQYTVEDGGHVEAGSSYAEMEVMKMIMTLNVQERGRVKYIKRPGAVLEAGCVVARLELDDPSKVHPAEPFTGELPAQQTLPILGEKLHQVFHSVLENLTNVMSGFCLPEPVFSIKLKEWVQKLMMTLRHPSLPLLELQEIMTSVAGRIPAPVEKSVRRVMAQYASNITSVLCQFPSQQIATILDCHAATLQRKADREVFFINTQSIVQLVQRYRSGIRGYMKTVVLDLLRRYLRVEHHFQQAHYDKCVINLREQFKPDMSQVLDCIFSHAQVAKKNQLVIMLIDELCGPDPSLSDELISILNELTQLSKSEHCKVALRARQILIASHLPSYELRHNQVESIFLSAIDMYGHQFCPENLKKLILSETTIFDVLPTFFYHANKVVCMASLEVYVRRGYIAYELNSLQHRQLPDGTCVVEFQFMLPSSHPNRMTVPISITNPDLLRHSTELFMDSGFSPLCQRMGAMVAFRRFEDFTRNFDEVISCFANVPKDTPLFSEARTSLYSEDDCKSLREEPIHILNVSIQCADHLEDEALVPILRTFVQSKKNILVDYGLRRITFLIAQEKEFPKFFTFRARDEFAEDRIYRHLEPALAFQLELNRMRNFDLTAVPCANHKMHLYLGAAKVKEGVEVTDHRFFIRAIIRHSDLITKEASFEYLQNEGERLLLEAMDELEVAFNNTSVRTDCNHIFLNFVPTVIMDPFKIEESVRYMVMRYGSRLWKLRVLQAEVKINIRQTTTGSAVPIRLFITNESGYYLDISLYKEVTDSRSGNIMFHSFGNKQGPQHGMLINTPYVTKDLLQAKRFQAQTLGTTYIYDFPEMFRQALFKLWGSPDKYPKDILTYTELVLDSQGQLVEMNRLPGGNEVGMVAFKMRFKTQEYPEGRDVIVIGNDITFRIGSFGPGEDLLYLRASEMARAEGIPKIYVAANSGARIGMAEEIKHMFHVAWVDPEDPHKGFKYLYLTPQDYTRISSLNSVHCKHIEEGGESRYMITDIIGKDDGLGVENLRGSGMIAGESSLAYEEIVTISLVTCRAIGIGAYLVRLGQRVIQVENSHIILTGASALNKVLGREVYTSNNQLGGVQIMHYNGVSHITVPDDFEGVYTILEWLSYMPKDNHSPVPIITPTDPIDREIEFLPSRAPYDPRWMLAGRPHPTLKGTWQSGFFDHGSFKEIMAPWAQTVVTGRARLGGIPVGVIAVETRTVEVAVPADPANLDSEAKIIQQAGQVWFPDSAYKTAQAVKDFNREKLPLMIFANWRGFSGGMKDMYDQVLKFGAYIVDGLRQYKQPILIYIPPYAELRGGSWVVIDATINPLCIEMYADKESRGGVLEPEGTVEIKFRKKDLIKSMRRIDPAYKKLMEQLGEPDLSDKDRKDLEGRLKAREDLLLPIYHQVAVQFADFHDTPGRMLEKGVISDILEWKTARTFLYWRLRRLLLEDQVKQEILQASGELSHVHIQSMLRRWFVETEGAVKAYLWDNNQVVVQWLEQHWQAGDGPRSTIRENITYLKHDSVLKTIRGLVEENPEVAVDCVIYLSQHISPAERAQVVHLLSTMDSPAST

CCOc1nc2ccc(O[C@H]3CC[C@H](OC[C@H](C)NC(C)=O)CC3)nc2n1CC [Compound I-493] was tested, and the IC50 was 70 nM.
In the case of CC(=O)N[C@@H](C)CO[C@H]1CC[C@H](Oc2ccc3nc(OC(C)C)n(C)c3n2)CC1 [Compound I-494], the IC50 is reported as 46 nM.
For CC(=O)N[C@@H](C)CO[C@H]1CC[C@H](Oc2ccc3nc(OC4CC4)n(C)c3n2)CC1 [Compound I-495], the IC50 was 74 nM.
CC(=O)N[C@@H](C)CO[C@H]1CC[C@H](Oc2ccc3nc(OCC4CC4)n(C)c3n2)CC1 [Compound I-496] showed an IC50 of 24 nM.
Work on CC(=O)N[C@@H](C)CO[C@H]1CC[C@H](Oc2ccc3nc(OC4CC(F)(F)C4)n(C)c3n2)CC1 [Compound I-497] yielded an IC50 of 15 nM.
CC(=O)N[C@@H](C)CO[C@H]1CC[C@H](Oc2ccc3nc(OCC(F)(F)F)n(C)c3n2)CC1 [Compound I-498] was tested, and the IC50 was 13 nM.
In the case of CC(=O)N[C@@H](C)CO[C@H]1CC[C@H](Oc2ccc3nc(OCC(F)F)n(C)c3n2)CC1 [Compound I-499], the IC50 is reported as 40 nM.
Work on CC(=O)N[C@@H](C)CO[C@H]1CC[C@H](Oc2ccc3nc(OCC(C)(F)F)n(C)c3n2)CC1 [Compound I-500] yielded an IC50 of 21 nM.
CC(=O)N[C@@H](C)CO[C@H]1CC[C@H](Oc2ccc3nc(OCc4ccccc4)n(C)c3n2)CC1 [Compound I-501] gave an IC50 of 9 nM.
With CC(=O)N[C@@H](C)CO[C@H]1CC[C@H](Oc2ccc3nc(OC4(C)CC4)n(C)c3n2)CC1 [Compound I-502] the IC50 was 62 nM.
Work on CC(=O)N[C@@H](C)CO[C@H]1CC[C@H](Oc2ccc3nc(OCC4CC4(F)F)n(C)c3n2)CC1 (stereo partly drawn) [Compound I-503] yielded an IC50 of 24 nM.
CC(=O)N[C@@H](C)CO[C@H]1CC[C@H](Oc2ccc3nc(OCCC(F)(F)F)n(C)c3n2)CC1 [Compound I-504] showed an IC50 of 18 nM.
CCCOc1nc2ccc(O[C@H]3CC[C@H](OC[C@H](C)NC(C)=O)CC3)nc2n1C [Compound I-505] showed an IC50 of 12 nM.
CCOc1nc2ccc(O[C@H]3CC[C@H](OC[C@H](C)NC(C)=O)CC3)cc2n1C [Compound I-506] showed an IC50 of 249 nM.
CCOc1nc2ccc(O[C@H]3CC[C@H](OC[C@H](C)NC(C)=O)CC3)c(F)c2n1C [Compound I-507] was tested, and the IC50 was 132 nM.
CC(=O)N[C@@H](C)CO[C@H]1CC[C@H](Oc2cc(C)c3nc(Oc4ccc(F)cc4)n(C)c3n2)CC1 [Compound I-508] showed an IC50 of 81 nM.
With CC(=O)N[C@@H](C)CO[C@H]1CC[C@H](Oc2cc(C)c3nc(OCC4CC4)n(C)c3n2)CC1 [Compound I-509] the IC50 was 225 nM.
CCOc1nc2cc(Cl)c(O[C@H]3CC[C@H](OC[C@H](C)NC(C)=O)CC3)nc2n1C [Compound I-510] gave an IC50 of 28 nM.
Work on CC(=O)N[C@@H](C)CO[C@H]1CC[C@H](Oc2ccc3nc(OC4CCC(F)(F)CC4)n(C)c3n2)CC1 [Compound I-511] yielded an IC50 of 22 nM.
For CC(=O)N[C@@H](C)CO[C@H]1CC[C@H](Oc2ccc3nc(CC4CC4)n(C)c3n2)CC1 [Compound I-512], the IC50 was 110 nM.
Work on CC(=O)N[C@@H](C)CO[C@H]1CC[C@H](Oc2ccc3nc(C(C)C)n(C)c3n2)CC1 [Compound I-513] yielded an IC50 of 260 nM.
For CC(=O)N[C@@H](C)CO[C@H]1CC[C@H](Oc2ccc3nc(CCC4CC4)n(C)c3n2)CC1 [Compound I-514], the IC50 was 32 nM.
Work on CC(=O)N[C@@H](C)CO[C@H]1CC[C@H](Oc2ccc3nc(CCC(F)(F)F)n(C)c3n2)CC1 [Compound I-515] yielded an IC50 of 41 nM.
CCOc1nc2cc(F)c(O[C@H]3CC[C@H](OC[C@H](C)NC(C)=O)CC3)nc2n1C [Compound I-516] gave an IC50 of 27 nM.
CCCOc1nc2cc(F)c(O[C@H]3CC[C@H](OC[C@H](C)NC(C)=O)CC3)nc2n1C [Compound I-517] gave an IC50 of 14 nM.
For CC(=O)N[C@@H](C)CO[C@H]1CC[C@H](Oc2nc3c(cc2F)nc(OC2CC(F)(F)C2)n3C)CC1 [Compound I-518], the IC50 was 13 nM.
CCOc1nc2ccc(OC[C@H]3C[C@H](OC[C@H](C)NC(C)=O)C3)nc2n1C [Compound I-519] was tested, and the IC50 was 170 nM.
In the case of CCOc1nc2ccc(OC[C@H]3C[C@@H](OC[C@H](C)NC(C)=O)C3)nc2n1C [Compound I-520], the IC50 is reported as 315 nM.
CC(=O)N[C@@H](C)CO[C@H]1CC[C@H](Oc2ncc(-c3ncc(F)cn3)cc2F)CC1 [Compound I-521] gave an IC50 of 20 nM.
Compound CC(=O)N[C@@H](C)CO[C@H]1CC[C@H](Oc2ncc(-c3ncc(F)cn3)cc2Cl)CC1 [Compound I-522] has an IC50 of 8 nM.
With CC(=O)N[C@@H](C)CO[C@H]1CC[C@H](Oc2ncc(-c3ncccn3)cc2F)CC1 [Compound I-523] the IC50 was 105 nM.
CC(=O)N[C@@H](C)CO[C@H]1CC[C@H](Oc2ncc(-c3ncc(C#N)cn3)cc2F)CC1 [Compound I-524] was tested, and the IC50 was 64 nM.
For CC(=O)N[C@@H](C)CO[C@H]1CC[C@H](Oc2ncc(-c3ncc(F)cn3)cc2C#N)CC1 [Compound I-525], the IC50 was 41 nM.
CC(=O)N[C@@H](C)CO[C@H]1CC[C@H](Oc2ncc(-c3ncc(Cl)cn3)cc2F)CC1 [Compound I-526] was tested, and the IC50 was 13 nM.
COc1cc(-c2ncc(F)cn2)cnc1O[C@H]1CC[C@H](OC[C@H](C)NC(C)=O)CC1 [Compound I-527] was tested, and the IC50 was 158 nM.
Work on COc1cnc(-c2cnc(O[C@H]3CC[C@H](OC[C@H](C)NC(C)=O)CC3)c(F)c2)nc1 [Compound I-528] yielded an IC50 of 61 nM.
CC(=O)N[C@@H](C)CO[C@H]1CC[C@H](Oc2ncc(-c3ncc(C(C)C)cn3)cc2F)CC1 [Compound I-529] gave an IC50 of 172 nM.
Work on CC(=O)N[C@@H](C)CO[C@H]1CC[C@H](Oc2ncc(-c3ncc(C#N)cn3)cc2C#N)CC1 [Compound I-530] yielded an IC50 of 196 nM.
CC(=O)N[C@@H](C)CO[C@H]1CC[C@H](Oc2ncc(-c3nccc(C#N)n3)cc2F)CC1 [Compound I-531] was tested, and the IC50 was 481 nM.
For CC(=O)N[C@@H](C)CO[C@H]1CC[C@H](Oc2ncc(-c3ncc(F)cn3)cc2C)CC1 [Compound I-532], the IC50 was 6 nM.
With CCc1cnc(-c2cnc(O[C@H]3CC[C@H](OC[C@H](C)NC(C)=O)CC3)c(F)c2)nc1 [Compound I-533] the IC50 was 102 nM.
For CC(=O)N[C@@H](C)CO[C@H]1CC[C@H](Oc2ncc(-c3ncc(C)cn3)cc2F)CC1 [Compound I-534], the IC50 was 67 nM.
CC(=O)N[C@@H](C)CO[C@H]1CC[C@H](Oc2ncc(-c3ncc(Cl)cn3)cc2C#N)CC1 [Compound I-535] gave an IC50 of 30 nM.
CC(=O)N[C@@H](C)CO[C@H]1CC[C@H](Oc2ncc(-c3ncc(C4CC4)cn3)cc2F)CC1 [Compound I-536] showed an IC50 of 28 nM.
Work on CC(=O)N[C@@H](C)CO[C@H]1CC[C@H](Oc2ncc(-c3ncc(F)cn3)cc2OCc2ccccc2)CC1 [Compound I-537] yielded an IC50 of 975 nM.
Compound C[C@@H](CO[C@H]1CC[C@H](Oc2ncc(-c3ncc(F)cn3)cc2F)CC1)NC(N)=O [Compound I-538] has an IC50 of 71 nM.
For CCOC(=O)c1cc(C(=O)N[C@@H](C)CO[C@H]2CC[C@H](Oc3ncc(-c4ncc(F)cn4)cc3F)CC2)ccn1 [Compound I-539], the IC50 was 92 nM.
In the case of C[C@@H](CO[C@H]1CC[C@H](Oc2ncc(-c3ncc(F)cn3)cc2F)CC1)NS(C)(=O)=O [Compound I-540], the IC50 is reported as 323 nM.
Work on COC(=O)N[C@@H](C)CO[C@H]1CC[C@H](Oc2ncc(-c3ncc(F)cn3)cc2F)CC1 [Compound I-541] yielded an IC50 of 130 nM.
CC(=O)N[C@@H](C)CO[C@H]1CC[C@H](Oc2ncc(-c3ncc(F)cn3)cc2F)CC1 [Compound I-542] was tested, and the IC50 was 6 nM.
CC(=O)N[C@@H](C)CC[C@H]1CC[C@H](Oc2ncc(-c3ncc(C(F)(F)F)cn3)cc2F)CC1 [Compound I-543] showed an IC50 of 14 nM.
CC(=O)N[C@@H](C)CC[C@H]1CC[C@H](Oc2ncc(-c3ncc(Cl)cn3)cc2F)CC1 [Compound I-544] gave an IC50 of 4 nM.
In the case of CC(=O)N[C@@H](C)CO[C@H]1CC[C@H](Oc2ncc(-c3ncc(C(F)(F)F)cn3)cc2F)CC1 [Compound I-545], the IC50 is reported as 46 nM.
For CC(=O)N[C@@H](C)CO[C@H]1CC[C@H](Oc2ncc(-c3ncc(C(F)(F)F)cn3)cc2C#N)CC1 [Compound I-546], the IC50 was 66 nM.
Work on CC(=O)N[C@@H](C)CO[C@H]1CC[C@H](Oc2nc3ccc(Br)cc3s2)CC1 [Compound I-547] yielded an IC50 of 104 nM.
In the case of CC(=O)N[C@@H](C)CO[C@H]1CC[C@H](Oc2ncc3cc(OCC4CC4)ccc3n2)CC1 [Compound I-548], the IC50 is reported as 124 nM.
CC(=O)N[C@@H](C)CO[C@H]1CC[C@H](Oc2nc3cc(Br)ccc3s2)CC1 [Compound I-549] showed an IC50 of 37 nM.
With CC(=O)N[C@@H](C)CO[C@H]1CC[C@H](Oc2nc3ccc(OCC4CC4)cc3s2)CC1 [Compound I-550] the IC50 was 21 nM.
CC(=O)N[C@@H](C)CO[C@H]1CC[C@H](Oc2nc3cnc(OCC(F)F)cc3s2)CC1 [Compound I-551] was tested, and the IC50 was 15 nM.
For CC(=O)N[C@@H](C)CO[C@H]1CC[C@H](Oc2nc3cnc(OCC(F)F)c(F)c3s2)CC1 [Compound I-552], the IC50 was 13 nM.
With CC(=O)N[C@@H](C)CO[C@H]1CC[C@H](Oc2nc3ccc(OCC(F)F)nc3s2)CC1 [Compound I-553] the IC50 was 196 nM.
Compound CC(=O)N[C@@H](C)CO[C@H]1CC[C@H](Oc2ncc3cc(OCC(F)F)ccc3n2)CC1 [Compound I-554] has an IC50 of 620 nM.
In the case of CC(=O)N[C@@H](C)CO[C@H]1CC[C@H](Oc2ncc3c(Cl)c(OCC4CC4)ccc3n2)CC1 [Compound I-555], the IC50 is reported as 34 nM.
For CC(=O)N[C@@H](C)CO[C@H]1CC[C@H](Oc2nc3ccc(Br)cc3n2C)CC1 [Compound I-556], the IC50 was 105 nM.
CC(=O)N[C@@H](C)CO[C@H]1CC[C@H](Oc2nc3cc(Br)ccc3n2C)CC1 [Compound I-557] gave an IC50 of 216 nM.
For CC(=O)N[C@@H](C)CO[C@H]1CC[C@H](Oc2nc3ccc(OCc4ccccc4)cc3n2C)CC1 [Compound I-558], the IC50 was 43 nM.
CCOc1ccc2nc(O[C@H]3CC[C@H](OC[C@H](C)NC(C)=O)CC3)n(C)c2c1 [Compound I-559] gave an IC50 of 43 nM.
For CC(=O)N[C@@H](C)CO[C@H]1CC[C@H](Oc2nc3ccc(OC(C)C)cc3n2C)CC1 [Compound I-560], the IC50 was 101 nM.
With CC(=O)N[C@@H](C)CO[C@H]1CC[C@H](Oc2nc3ccc(OCC4CC4)cc3n2C)CC1 [Compound I-561] the IC50 was 104 nM.
